# Values joined by “and” are separate entries in the source; they are usually repeats but may differ in a detail not shown here. Identical values can stand only once.
# Columns and labels:
# mGluR2 [1] = target: mGluR2 (Mus musculus, UniProt Q14BI2, A548F); test: Live-cell FRET, azi-CRD (cysteine-rich domain) sensor in HEK293T cells; conditions: for Normalized FRET response, Mean (azi-CRD agonist DRC): maximal responses normalized to 1mM glutamate
# mGluR2 [2] = target: T1, mGluR2 (Mus musculus, UniProt Q14BI2); test: Live-cell FRET, SNAP-m2 (VFT domain) inter-subunit sensor in HEK293T cells; conditions: for Normalized FRET response, Mean (SNAP-m2 agonist DRC): maximal responses normalized to 1mM glutamate;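 on all read-outs here: apparent FRET efficiency from whole-membrane ROIs of single cells, corrected for donor bleed-through and background, ΔFRET as treatment minus pretreatment signal, recorded at room temperature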
# mGluR2 [3] = target: mGluR2 (Mus musculus, UniProt Q14BI2, INS715F); test: Live-cell FRET, azi-ECL2 (7TM domain, extracellular loop 2) sensor in HEK293T cells;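 further: Cy3/Cy5 click-labeled sensor, whole-membrane ROIs per cell, apparent FRET after bleed-through correction, ΔFRET as treatment minus pre-treatment signal, at room temperature, at least three biological replicates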
# mGluR2 [4] = target: T1, mGluR2; test: Functional calcium imaging, SNAP-mGluR2 (no FLAG-tag) with chimeric G protein Gqo5 in HEK293T cells; format: cell-based; set-up: Full length mGluR2 construct with an amber codon (TAG) mutation of amino acid A548 (azi-CRD) or N-terminal SNAP-tag (SNAP-mGluR2); host or cells: HEK293T; conditions: for Intracellular Ca2+ response, Mean / Intracellular Ca2+ response: normalized to 1mM glutamate; for Intracellular Ca2+ response: single experiments
# T1 sequence (Q14BI2 19-872): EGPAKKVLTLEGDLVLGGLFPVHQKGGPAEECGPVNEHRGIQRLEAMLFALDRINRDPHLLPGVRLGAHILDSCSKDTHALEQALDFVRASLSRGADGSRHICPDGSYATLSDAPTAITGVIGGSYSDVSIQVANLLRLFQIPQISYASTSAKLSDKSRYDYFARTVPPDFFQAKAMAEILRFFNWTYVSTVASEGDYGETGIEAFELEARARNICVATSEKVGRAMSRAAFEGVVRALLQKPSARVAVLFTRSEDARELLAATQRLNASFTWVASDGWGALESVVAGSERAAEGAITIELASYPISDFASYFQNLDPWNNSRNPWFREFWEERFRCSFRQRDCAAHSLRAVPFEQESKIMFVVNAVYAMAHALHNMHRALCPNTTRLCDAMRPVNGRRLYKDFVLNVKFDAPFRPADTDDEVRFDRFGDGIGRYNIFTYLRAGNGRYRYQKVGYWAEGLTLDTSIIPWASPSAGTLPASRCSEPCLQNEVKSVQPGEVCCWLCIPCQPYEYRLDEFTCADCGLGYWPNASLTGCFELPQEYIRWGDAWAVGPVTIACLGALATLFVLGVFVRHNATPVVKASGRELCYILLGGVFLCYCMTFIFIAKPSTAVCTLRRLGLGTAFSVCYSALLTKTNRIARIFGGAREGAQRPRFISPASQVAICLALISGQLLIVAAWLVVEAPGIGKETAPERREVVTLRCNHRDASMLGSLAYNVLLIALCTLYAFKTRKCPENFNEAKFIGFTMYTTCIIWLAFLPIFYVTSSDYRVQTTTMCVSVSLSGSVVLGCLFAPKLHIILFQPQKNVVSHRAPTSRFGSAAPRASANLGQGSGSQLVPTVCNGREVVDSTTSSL
# Chain of mGluR2 (Mus musculus, UniProt Q14BI2, INS715F) (Q14BI2 with tags, fused parts or gaps INS715F): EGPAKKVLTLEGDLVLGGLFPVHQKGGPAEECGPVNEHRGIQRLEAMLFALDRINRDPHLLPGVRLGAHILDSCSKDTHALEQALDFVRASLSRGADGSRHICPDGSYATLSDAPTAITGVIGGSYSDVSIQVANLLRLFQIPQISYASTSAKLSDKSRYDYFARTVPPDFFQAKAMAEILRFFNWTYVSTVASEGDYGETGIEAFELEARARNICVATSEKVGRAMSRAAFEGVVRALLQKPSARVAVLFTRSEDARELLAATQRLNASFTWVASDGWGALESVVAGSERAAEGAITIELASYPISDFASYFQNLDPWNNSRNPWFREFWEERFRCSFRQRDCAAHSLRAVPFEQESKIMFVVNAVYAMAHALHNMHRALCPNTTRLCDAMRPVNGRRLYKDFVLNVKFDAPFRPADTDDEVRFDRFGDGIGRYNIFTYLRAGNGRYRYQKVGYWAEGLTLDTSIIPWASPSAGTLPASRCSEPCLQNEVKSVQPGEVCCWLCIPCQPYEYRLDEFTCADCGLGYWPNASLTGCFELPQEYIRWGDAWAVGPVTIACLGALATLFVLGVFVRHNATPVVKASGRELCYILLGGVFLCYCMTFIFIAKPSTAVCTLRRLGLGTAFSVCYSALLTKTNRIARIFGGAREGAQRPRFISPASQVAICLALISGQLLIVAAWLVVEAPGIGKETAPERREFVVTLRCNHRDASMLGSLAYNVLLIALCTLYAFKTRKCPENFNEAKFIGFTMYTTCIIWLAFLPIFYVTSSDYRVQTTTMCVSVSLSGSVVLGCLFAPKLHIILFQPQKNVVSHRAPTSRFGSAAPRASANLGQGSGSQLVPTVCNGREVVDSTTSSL
# Chain of mGluR2 (Mus musculus, UniProt Q14BI2, A548F) (Q14BI2 19-872 A548F): as the sequence (Q14BI2 19-872) above, with A530F counted along it
smiles,measurement,setting,value
N[C@@]1(C(=O)O)CO[C@H]2[C@H](C(=O)O)[C@H]21 [LY379268],EC50,"mGluR2 [1]; Live-cell FRET titration EC50, azi-CRD, agonist alone, individual experiments",12.7 nM and 14.3 nM and 9.97 nM and 8.96 nM and 10.9 nM and 13.4 nM and 14.5 nM and 16 nM and 14.4 nM and 12.2 nM and 11.3 nM and 13.2 nM and 11.7 nM and 11.4 nM and 10.4 nM and 14.2 nM and 9.03 nM and 7.75 nM
same,EC50,"mGluR2 [1]; Mean half-maximum effective concentration (EC50), azi-CRD sensor, orthosteric agonist alone, nM for LY379268 (footnote)",12.1 nM
same,Hill slope,"mGluR2 [1]; azi-CRD sensor, orthosteric agonist alone",1.36
same,Live-cell FRET max response normalized to 1mM glutamate,"mGluR2 [1]; azi-CRD sensor, LY379268, individual values (N=25)",1.396 and 1.075 and 1.11 and 1.161 and 1.042 (2×) and 1.039 and 1.015 and 1.054 and 0.99 and 1.034 and 0.9879 and 0.9896 and 1.016 and 1.007 and 1.046 and 1.009 (2×) and 0.9955 and 1.0569 and 1.003 and 0.9915 and 1.157 and 1.205 and 1.123
same,Mean max response (normalized max ΔFRET),"mGluR2 [1]; azi-CRD, agonist alone (1 mM glutamate, 100 μM DCG-IV, 20 μM LY379268, 100 μM APDC), normalized to 1 mM glutamate",1.06
same,"Normalized Max ΔFRET, Mean","mGluR2 [1]; azi-CRD, 20μM agonist, mean of cells, normalized to 1mM glutamate",106.212
same,"Normalized FRET response, Mean (azi-CRD agonist DRC)",mGluR2 [1]; log[ligand] (M) -4.69897,1.062
same,"Normalized FRET response, Mean (azi-CRD agonist DRC)",mGluR2 [1]; log[ligand] (M) -6,1.058
same,"Normalized FRET response, Mean (azi-CRD agonist DRC)",mGluR2 [1]; log[ligand] (M) -7.1549,0.9652
same,"Normalized FRET response, Mean (azi-CRD agonist DRC)",mGluR2 [1]; log[ligand] (M) -7.52288,0.8398
same,"Normalized FRET response, Mean (azi-CRD agonist DRC)",mGluR2 [1]; log[ligand] (M) -8,0.4669
same,"Normalized FRET response, Mean (azi-CRD agonist DRC)",mGluR2 [1]; log[ligand] (M) -8.39794,0.1943
same,"Normalized FRET response, Mean (azi-CRD agonist DRC)",mGluR2 [1]; log[ligand] (M) -8.82391,0.06461
same,"Normalized FRET response, Mean (azi-CRD agonist DRC)",mGluR2 [1]; log[ligand] (M) -9.52288,0.04231
same,"Normalized FRET response, Mean (azi-CRD agonist DRC)",mGluR2 [1]; log[ligand] (M) -10,0
same,Emax,"mGluR2 [2]; HEK-293T, read-out: Normalized Max ΔFRET, SNAP-m2, 20μM agonist, individual cells, normalized to 1mM glutamate",101%
same,EC50,"mGluR2 [2]; Mean half-maximum effective concentration (EC50), SNAP-m2 sensor, orthosteric agonist alone, nM for LY379268 (footnote)",30.6 nM
same,Mean max response (normalized max ΔFRET),"mGluR2 [2]; SNAP-m2 (VFT), agonist alone (1 mM glutamate, 100 μM DCG-IV, 20 μM LY379268, 100 μM APDC), normalized to 1 mM glutamate",1.01
same,"Normalized Max ΔFRET, Mean","mGluR2 [2]; SNAP-m2, 20μM agonist, mean of cells, normalized to 1mM glutamate",101.061
same,Hill slope,"mGluR2 [2]; SNAP-m2 sensor, orthosteric agonist alone",–1.12
same,Live-cell FRET max response normalized to 1mM glutamate,"mGluR2 [2]; SNAP-m2 sensor, LY379268, individual values (N=23)",0.9967 and 0.9702 and 0.9948 and 1.036 and 0.962 and 0.9651 and 1.05 (3×) and 1.035 and 1.049 and 1.015 and 0.9906 and 1.057 and 1.051 and 0.9532 and 0.9752 and 0.9335 and 1.106 and 1.013 and 0.9759 and 0.9961 and 1.019
same,"Normalized FRET response, Mean (SNAP-m2 agonist DRC)",mGluR2 [2]; log[ligand] (M) -6,-1.011
same,"Normalized FRET response, Mean (SNAP-m2 agonist DRC)",mGluR2 [2]; log[ligand] (M) -6.69897,-1.017
same,"Normalized FRET response, Mean (SNAP-m2 agonist DRC)",mGluR2 [2]; log[ligand] (M) -7.1549,-0.7975
same,"Normalized FRET response, Mean (SNAP-m2 agonist DRC)",mGluR2 [2]; log[ligand] (M) -7.52288,-0.6707
same,"Normalized FRET response, Mean (SNAP-m2 agonist DRC)",mGluR2 [2]; log[ligand] (M) -8,-0.3677
same,"Normalized FRET response, Mean (SNAP-m2 agonist DRC)",mGluR2 [2]; log[ligand] (M) -8.39794,-0.1637
same,"Normalized FRET response, Mean (SNAP-m2 agonist DRC)",mGluR2 [2]; log[ligand] (M) -8.82391,-0.07424
same,"Normalized FRET response, Mean (SNAP-m2 agonist DRC)",mGluR2 [2]; log[ligand] (M) -9.52288,-0.01697
same,"Normalized FRET response, Mean (SNAP-m2 agonist DRC)",mGluR2 [2]; log[ligand] (M) -10,-0.0059
same,"Normalized FRET response, Mean (SNAP-m2 agonist DRC)",mGluR2 [2]; log[ligand] (M) -10.699,0
same,EC50,"mGluR2 [3]; EC50, live-cell FRET titration, azi-ECL2 sensor, LY379268, individual cell values (N=9)",6.91 nM and 29 nM and 9.62 nM and 9.94 nM and 8.57 nM and 6.02 nM and 9.91 nM and 5.72 nM and 5.97 nM
same,EC50,"mGluR2 [3]; Mean half-maximum effective concentration (EC50), azi-ECL2 sensor, orthosteric agonist alone, nM for LY379268 (footnote)",10.2 nM
same,Mean max response (normalized max ΔFRET),"mGluR2 [3]; azi-ECL2, agonist alone (1 mM glutamate, 100 μM DCG-IV, 20 μM LY379268, 100 μM APDC), normalized to 1 mM glutamate",1.14
same,"Normalized ΔFRET response, Mean (agonist DRC)","mGluR2 [3]; azi-ECL2, log[agonist] (M) -4.69897, normalized to 1 mM glutamate",1.14
same,"Normalized ΔFRET response, Mean (agonist DRC)","mGluR2 [3]; azi-ECL2, log[agonist] (M) -6, normalized to 1 mM glutamate",1.108
same,"Normalized ΔFRET response, Mean (agonist DRC)","mGluR2 [3]; azi-ECL2, log[agonist] (M) -7.1549, normalized to 1 mM glutamate",1.024
same,"Normalized ΔFRET response, Mean (agonist DRC)","mGluR2 [3]; azi-ECL2, log[agonist] (M) -7.52288, normalized to 1 mM glutamate",0.9098
same,"Normalized ΔFRET response, Mean (agonist DRC)","mGluR2 [3]; azi-ECL2, log[agonist] (M) -8, normalized to 1 mM glutamate",0.6174
same,"Normalized ΔFRET response, Mean (agonist DRC)","mGluR2 [3]; azi-ECL2, log[agonist] (M) -8.39794, normalized to 1 mM glutamate",0.327
same,"Normalized ΔFRET response, Mean (agonist DRC)","mGluR2 [3]; azi-ECL2, log[agonist] (M) -8.82391, normalized to 1 mM glutamate",0.1901
same,"Normalized ΔFRET response, Mean (agonist DRC)","mGluR2 [3]; azi-ECL2, log[agonist] (M) -9.52288, normalized to 1 mM glutamate",0.0544
same,"Normalized ΔFRET response, Mean (agonist DRC)","mGluR2 [3]; azi-ECL2, log[agonist] (M) -10, normalized to 1 mM glutamate",0
same,"Normalized ΔFRET response, Mean (agonist DRC)","mGluR2 [3]; azi-ECL2, log[agonist] (M) -10.699, normalized to 1 mM glutamate",0
same,"Normalized Max ΔFRET, Mean","mGluR2 [3]; azi-ECL2, 20μM agonist, mean of cells, normalized to 1mM glutamate",114.025
same,Hill slope,"mGluR2 [3]; azi-ECL2 sensor, orthosteric agonist alone",1.03
same,Live-cell FRET max response normalized to 1mM glutamate,"mGluR2 [3]; azi-ECL2 sensor, LY379268, individual values (N=22)",0.9523 and 0.965 and 0.9976 and 1.05 and 1.063 and 1.017 and 1.16 and 1.1 and 1.538 and 1.083 and 1.3913 and 1.033 and 1.4421 and 1.297 and 1.208 and 1.454 and 1.223 and 1.042 and 0.9949 and 1.12 and 0.9608 and 0.9946
same,"Normalized Max Intracellular Ca2+ Response, individual experiments","mGluR2 [4]; 100 μM DCG-IV, 10 μM LY379268, 300 μM APDC, normalized to 1 mM glutamate, single replicate",1.134 and 1.073 and 0.9696
same,"Normalized Max Intracellular Ca2+ Response, mean","mGluR2 [4]; 1 mM Glu, 100 μM DCG-IV, 10 μM LY379268, 300 μM APDC, normalized to 1 mM glutamate",1.059
same,"Intracellular Ca2+ response, Mean",mGluR2 [4]; log[agonist] (M) -5,1.059
same,Intracellular Ca2+ response,mGluR2 [4]; log[agonist] (M) -5,1.059
same,"Intracellular Ca2+ response, Mean",mGluR2 [4]; log[agonist] (M) -5.30103,1.029
same,Intracellular Ca2+ response,mGluR2 [4]; log[agonist] (M) -5.30103,1.067 and 1.001 and 1.018
same,"Intracellular Ca2+ response, Mean",mGluR2 [4]; log[agonist] (M) -5.69897,1.028
same,Intracellular Ca2+ response,mGluR2 [4]; log[agonist] (M) -5.69897,0.9461 and 1.043 and 1.094
same,"Intracellular Ca2+ response, Mean",mGluR2 [4]; log[agonist] (M) -6,1.014
same,Intracellular Ca2+ response,mGluR2 [4]; log[agonist] (M) -6,0.8943 and 1.055 and 1.093
same,"Intracellular Ca2+ response, Mean",mGluR2 [4]; log[agonist] (M) -6.60206,0.8831
same,Intracellular Ca2+ response,mGluR2 [4]; log[agonist] (M) -6.60206,0.7751 and 0.9366 and 0.9375
same,"Intracellular Ca2+ response, Mean",mGluR2 [4]; log[agonist] (M) -7.1549,0.4554
same,Intracellular Ca2+ response,mGluR2 [4]; log[agonist] (M) -7.1549,0.4206 and 0.5128 and 0.4328
same,"Intracellular Ca2+ response, Mean",mGluR2 [4]; log[agonist] (M) -7.52288,0.1775
same,Intracellular Ca2+ response,mGluR2 [4]; log[agonist] (M) -7.52288,0.2096 and 0.1787 and 0.1441
same,"Intracellular Ca2+ response, Mean",mGluR2 [4]; log[agonist] (M) -8,0.00736
same,"Intracellular Ca2+ response, Mean",mGluR2 [4]; log[agonist] (M) -8.39794,0
same,Intracellular Ca2+ response,mGluR2 [4]; log[agonist] (M) -8.39794,0
same,"Intracellular Ca2+ response, Mean",mGluR2 [4]; log[agonist] (M) -8.82391,0
same,Intracellular Ca2+ response,mGluR2 [4]; log[agonist] (M) -8.82391,0
same,"Intracellular Ca2+ response, Mean",mGluR2 [4]; log[agonist] (M) -9.52288,0
same,Intracellular Ca2+ response,mGluR2 [4]; log[agonist] (M) -9.52288,0
same,"Intracellular Ca2+ response, Mean",mGluR2 [4]; log[agonist] (M) -10,0
same,Intracellular Ca2+ response,mGluR2 [4]; log[agonist] (M) -10,0
same,EC50,"mGluR2 [4]; one value per experiment, read-out: EC50, intracellular Ca2+ response",84.9 nM and 98.9 nM and 71 nM

# From paper PMC9299836 (eLife, 2022)
